According to PubChem BioAssay (NCI):
Values joined by “and” are separate entries in the source; they are usually repeats but may differ in a detail not shown here. Equal entries are not always repeated.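 The compound was tested at five concentrations on cells cultured in 96-well plates, with a 48-hour exposure period. At the GI50, growth is halved. Definition used: TGI = concentration required for complete inhibition of growth.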

Tests used:
Test in all cases: DTP human tumour cell line panel, 48 h
PC-3 prostate = tested on: PC-3 prostate
MDA-N = tested on: MDA-N
T-47D breast = tested on: T-47D breast
SNB-78 CNS = tested on: SNB-78 CNS
DLD-1 colon = tested on: DLD-1 colon
HOP-18 NSCLC = tested on: HOP-18 NSCLC
DMS 273 small cell lung = tested on: DMS 273 small cell lung
RXF-631 renal = tested on: RXF-631 renal

CCCCCCCC(=O)OC[n+]1cccc(-c2c(COC(=O)NC(C)C)c(COC(=O)NC(C)C)c3n2CCC3)c1
TGI (PC-3 prostate): > 100 µM | TGI (MDA-N): > 100 µM | TGI (T-47D breast): > 100 µM

Nc1cccc(C(=O)/C=C/c2ccccc2O)c1
TGI (SNB-78 CNS): > 100 µM | TGI (DLD-1 colon): > 100 µM | TGI (HOP-18 NSCLC): > 100 µM | TGI (DMS 273 small cell lung): > 100 µM

Cc1cccc(NC(=O)CSc2nnc(-c3ccc(N=Cc4ccc(Cl)cc4)cc3)o2)c1
TGI (SNB-78 CNS): > 100 µM | TGI (HOP-18 NSCLC): > 100 µM | TGI (DMS 273 small cell lung): > 100 µM

O=C(Cc1csc2nc(-c3ccc(Br)cc3)cn12)N/N=C/c1ccccc1O
GI50 (PC-3 prostate): 4.28 µM | TGI (PC-3 prostate): 16.7 µM | GI50 (T-47D breast): 5.22 µM | TGI (T-47D breast): 23.2 µM

N#CC(C#N)=C/C=C/c1ccccc1[N+](=O)[O-]
TGI (PC-3 prostate): > 10 µM | TGI (MDA-N): 6.29 µM | TGI (T-47D breast): > 10 µM

Cc1cc2nc3c(C(OC4OC(CO)C(O)C(O)C4O)C(O)CO)nn(-c4ccc(F)cc4)c3nc2cc1C (centres undefined)
TGI (SNB-78 CNS): > 100 µM | TGI (DLD-1 colon): > 100 µM | TGI (RXF-631 renal): > 100 µM

c1ccc(-c2nc3ccccc3[nH]2)c(OCCCCCOc2ccccc2-c2nc3ccccc3[nH]2)c1
GI50 (PC-3 prostate): 7.64 µM | TGI (PC-3 prostate): 96.8 µM | GI50 (T-47D breast): 3.18 µM | TGI (T-47D breast): 18.6 µM

COc1ccc2cc1Oc1ccc(cc1)CC1c3c(cc(OC)c4c3Oc3cc5c(cc3O4)CCNC5C2)CCN1C (centres undefined)
TGI (PC-3 prostate): 3.72 µM and 3.23 µM | GI50 (MDA-N): 1.95 µM | TGI (MDA-N): 3.43 µM and 3.49 µM | GI50 (T-47D breast): 1.75 µM | TGI (T-47D breast): 3.53 µM

Cc1cn([C@H]2CN(O)C[C@@H](CO)O2)c(=O)[nH]c1=O
TGI (PC-3 prostate): > 100 µM | TGI (MDA-N): > 100 µM | TGI (T-47D breast): > 100 µM

COc1ccc(C2=NOC3=c4ccccc4=CSC3=C2c2ccccc2)cc1
GI50 (PC-3 prostate): 20.5 µM | TGI (PC-3 prostate): > 100 µM | GI50 (T-47D breast): 30.3 µM | TGI (T-47D breast): 73.9 µM

COc1ccccc1CNCCCN1C(=O)c2ccc3c4c(ccc(c24)C1=O)C(=O)N(CCCNCCCCN)C3=O
GI50 (PC-3 prostate): 0.307 µM | TGI (PC-3 prostate): 2.35 µM | GI50 (T-47D breast): 0.573 µM | TGI (T-47D breast): 2.4 µM

C=C(/C=C/C=C(\CO)CCC=C(C)C)[C@H]1CCC2([C@H](CCCO)/C(=C(/C)C=O)CC[C@]2(C)O)[C@H]1O (some centres undefined)
TGI (SNB-78 CNS): > 100 µM | TGI (DLD-1 colon): > 100 µM | TGI (HOP-18 NSCLC): > 100 µM | TGI (DMS 273 small cell lung): > 100 µM

O=C(CC/C(CC(=O)c1ccc(Cl)cc1)=N\O)Nc1cccc(Cl)c1
TGI (SNB-78 CNS): > 100 µM | TGI (DLD-1 colon): > 100 µM | TGI (DMS 273 small cell lung): > 100 µM

COc1ccc(-c2nc3sccn3c2/C=C/C(=O)c2cc(OC)c(OC)c(OC)c2)cc1
GI50 (PC-3 prostate): 2.97 µM | TGI (PC-3 prostate): > 38.7 µM | GI50 (T-47D breast): 1.86 µM | TGI (T-47D breast): 8.28 µM

Cc1ccccc1NC(=O)C(=O)CC(=O)c1sc(-n2nc(-c3ccccc3)cc2-c2ccccc2)nc1C
TGI (SNB-78 CNS): > 100 µM | TGI (DLD-1 colon): > 100 µM | TGI (RXF-631 renal): > 100 µM | TGI (DMS 273 small cell lung): > 100 µM

O=C(Cn1ccnc1[N+](=O)[O-])NCc1ccc(F)cc1
TGI (HOP-18 NSCLC): > 100 µM | TGI (RXF-631 renal): > 100 µM | TGI (DMS 273 small cell lung): > 100 µM

COc1ccc(/C(C#N)=C2/O/C(=N/N)C(c3ccc(OC)c(OC)c3)C2=O)cc1OC (centres undefined)
TGI (SNB-78 CNS): > 100 µM | TGI (DLD-1 colon): > 100 µM | TGI (DMS 273 small cell lung): > 100 µM

OCCN1CCCN(CCCN2c3ccccc3Sc3ccc(C(F)(F)F)cc32)CC1
GI50 (T-47D breast): 2.21 µM | TGI (T-47D breast): 5.39 µM

COc1ccc(C2C(C(=O)O)=C(COC(C)=O)Oc3cc4c(cc32)OCO4)c(OC)c1 (centres undefined)
TGI (SNB-78 CNS): > 100 µM | TGI (DLD-1 colon): > 100 µM | TGI (HOP-18 NSCLC): > 100 µM | TGI (RXF-631 renal): > 100 µM | TGI (DMS 273 small cell lung): > 100 µM

COC(=O)C1C(=O)NC2(C)CC1c1ccccc1O2 (centres undefined)
TGI (SNB-78 CNS): > 100 µM | TGI (DLD-1 colon): > 100 µM | TGI (DMS 273 small cell lung): > 100 µM

C#CCN(CCCOc1ccc(Cl)cc1Cl)CCCSC(=O)CCCCCN1/C(=C\C=C2/CCCC(/C=C/C3=[N+](CCCCCC(=O)[O-])c4ccccc4C3(C)C)=C2Cl)C(C)(C)c2ccccc21
GI50 (PC-3 prostate): 1.69 µM | TGI (PC-3 prostate): 4.01 µM | GI50 (T-47D breast): 0.768 µM | TGI (T-47D breast): 3.21 µM

COc1ccc(N=C2C(=O)Nc3ccc(Br)cc32)cc1
TGI (PC-3 prostate): > 100 µM | TGI (MDA-N): 30.3 µM | TGI (T-47D breast): 74.6 µM

O=C(O)c1cc2ccc(Cl)cc2c(O)c1C1=CCCCC1
TGI (SNB-78 CNS): > 100 µM | TGI (DLD-1 colon): > 100 µM | TGI (HOP-18 NSCLC): > 100 µM | TGI (RXF-631 renal): > 100 µM | TGI (DMS 273 small cell lung): 68.8 µM

CCOC(=O)C(=O)Nc1nc2ccc(OC)cc2s1
TGI (SNB-78 CNS): > 100 µM | TGI (DLD-1 colon): > 100 µM | TGI (HOP-18 NSCLC): > 100 µM | TGI (DMS 273 small cell lung): > 100 µM

c1ccc2[nH]c(-c3cscn3)nc2c1
TGI (PC-3 prostate): > 100 µM | TGI (MDA-N): > 100 µM | TGI (T-47D breast): > 100 µM

CC(=O)OCCc1cc2ccccc2oc1=O
TGI (PC-3 prostate): > 100 µM | TGI (MDA-N): > 100 µM | TGI (T-47D breast): > 100 µM

COc1ccc2c(c1)CCC1C2CCC2(C)C(NC(=O)CCCCC3CCSS3)CCC12 (centres undefined)
GI50 (PC-3 prostate): 7.18 µM | TGI (PC-3 prostate): > 100 µM | GI50 (T-47D breast): 3.56 µM | TGI (T-47D breast): > 100 µM

C=C(c1ccc(C(=O)NCCCn2ccnc2)cc1)c1cc2c(cc1C)C(C)(C)CCC2(C)C
GI50 (PC-3 prostate): 0.158 µM | TGI (PC-3 prostate): > 51.7 µM | GI50 (T-47D breast): 0.281 µM | TGI (T-47D breast): 6.76 µM

O=C(Nc1c(Cl)cc([N+](=O)[O-])cc1Cl)C(=O)C(C(=O)c1ccncc1)C1OC(=O)c2ccccc21 (centres undefined)
TGI (SNB-78 CNS): > 100 µM | TGI (DLD-1 colon): > 100 µM | TGI (HOP-18 NSCLC): > 100 µM | TGI (RXF-631 renal): > 100 µM | TGI (DMS 273 small cell lung): > 100 µM

COc1cc2c(c(OC)c1OC)-c1ccc(SC)c(=O)cc1C(CC(=O)Oc1ccccc1F)C2 (centres undefined)
TGI (SNB-78 CNS): > 7.5 µM | TGI (DLD-1 colon): > 7.5 µM

Nc1nc2c([nH]1)c1[nH]c3ccccc3c1c1[nH]c3ccccc3c21
GI50 (PC-3 prostate): 11 µM | TGI (PC-3 prostate): 23.1 µM

O=C(Nc1ccc(-n2cc(-c3ccncc3)c(-c3ccc(Cl)c(O)c3)n2)cc1)c1ccc(Cl)c(Cl)c1
GI50 (PC-3 prostate): 4.18 µM | TGI (PC-3 prostate): > 100 µM | GI50 (T-47D breast): 8.09 µM | TGI (T-47D breast): > 100 µM

Cc1ccc(-n2cc(/C(N)=N/O)c3ccccc3c2=O)cc1
TGI (DMS 273 small cell lung): > 100 µM

Fc1nc(Sc2ncnc3nc[nH]c23)nc(-c2c3ccccc3c3sc4ccccc4n23)n1
TGI (PC-3 prostate): > 100 µM | TGI (MDA-N): > 100 µM | TGI (T-47D breast): > 100 µM

CC[C@]1(O)C[C@@H]2CN(CCc3c([nH]c4ccccc34)[C@@](C(=O)OC)(c3cc4c(cc3OC)N(C)[C@H]3[C@@](O)(C(=O)OC)[C@H](OC(=O)CCCBr)[C@]5(CC)C=CCN6CC[C@]43[C@@H]65)C2)C1
GI50 (PC-3 prostate): 0.0141 µM | TGI (PC-3 prostate): 14.3 µM

Cc1ccc(/C=C2\CCCC(C(NO)c3ccc(C)cc3)C2=NO)cc1 (centres undefined)
TGI (SNB-78 CNS): > 100 µM | TGI (DLD-1 colon): > 100 µM | TGI (HOP-18 NSCLC): > 100 µM | TGI (RXF-631 renal): 93.5 µM | TGI (DMS 273 small cell lung): > 100 µM

COC(=O)c1sc(=S)c2sc(C(=O)OC)c(C(=O)OC)c2c1C(=O)OC
GI50 (PC-3 prostate): 37.2 µM | TGI (PC-3 prostate): > 100 µM | GI50 (T-47D breast): 77.7 µM | TGI (T-47D breast): > 100 µM
